Several values for one entry are separate records, joined by “and”; a condition that tells them apart may be missing. Equal entries are not always repeated.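 Each compound was tested at five concentrations against cells in 96-well plates for 48 hours. Abbreviation: GI50, concentration required for 50% inhibition of growth. TGI denotes the concentration required for complete inhibition of growth.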
Key:
Experiment in all cases: NCI-60 cell line screen, 48 h
[1] = system: HCT-15 colon
[2] = system: IGROV1 ovarian
[3] = system: M14 melanoma
[4] = system: MOLT-4 leukemia
[5] = system: NCI-H23 lung
[6] = system: PC-3 prostate
[7] = system: SR leukemia
[8] = system: TK-10 renal
[9] = system: U251 CNS
[10] = system: HCC-2998 colon

SMILES	TGI [1] [µM]	TGI [2] [µM]	TGI [3]	TGI [4]	TGI [5]	TGI [6] [µM]	TGI [7]	TGI [8] [µM]	TGI [9]	GI50 [10] [nM]	TGI [10]	GI50 [1] [µM]	GI50 [2] [nM]	GI50 [3] [µM]	GI50 [5] [nM]	GI50 [6] [µM]	GI50 [7] [nM]	GI50 [8] [µM]	GI50 [9] [µM]	GI50 [4] [nM]
O=C(O)[C@@H]1[C@H](C(=O)O)[C@H](C(=O)O)C[C@@H]1C(=O)O	> 100	> 100	> 100 µM	> 100 µM	> 100 µM	> 100	> 100 µM	> 100	> 100 µM	–	–	–	–	–	–	–	–	–	–	–
O=C1C=C(NCCNC(=S)Nc2ccccc2)c2nccc3c2c1nc1ccccc13	> 100	> 100	> 100 µM	–	> 100 µM	> 100	> 100 µM	> 100	> 100 µM	17600	> 100 µM	34.9	56800	39.3	31500	> 100	2970	51.9	58.9	–
COc1cc2c(c(OC)c1OC)-c1ccc(N)c(=O)cc1[C@@H](NC(C)=O)CC2	> 100	–	–	> 100 µM	> 100 µM	> 100	> 100 µM	> 100	> 100 µM	27.9	–	0.358	35.9	0.0208	31.6	0.0354	< 10	0.0852	0.0302	39.5
COc1cc(CCN)c2c(c1OC)SSSSS2	1.44	1.55	0.676 µM	> 100 µM	1.79 µM	2.93	0.679 µM	3.03	2.46 µM	384	2.08 µM	0.319	336	0.085	478	1.59	113	1.42	1.08	64.6
COc1ccc(Nc2ncc(Br)c(NCCCNC(=O)C3CCC3)n2)cc1	62.5	44.5	> 100 µM	> 100 µM	62.2 µM	> 100	40.1 µM	38.7	> 100 µM	21700	58.1 µM	14.7	14600	31.5	16600	14.5	4340	5.46	12.4	5920
CCOC(=O)C1=C(C(=O)c2ccc(C)cc2)C(c2cccc([N+](=O)[O-])c2)C(C(=O)c2ccc(C)cc2)=C(C(=O)OCC)N1	6.13	35.3	32.9 µM	> 100 µM	30.1 µM	59.9	35.3 µM	43.2	25.8 µM	–	–	–	–	–	–	–	–	–	–	–
O=C1c2ccc([N+](=O)[O-])cc2-c2c1c1ccccc1c(=O)n2CCCNCCCNCCCn1c2c(c3ccc([N+](=O)[O-])cc3c1=O)C(=O)c1ccccc1-2	14.3	15.8	33.9 µM	2.11 µM	3.4 µM	15.9	2.83 µM	33.9	15.3 µM	3080	9.77 µM	3.4	2430	13.6	1200	3.31	30.6	5.32	3.42	129
Oc1ccc(C(c2ccc(O)cc2)c2ccc(Cl)cn2)cc1	56.1	42	> 100 µM	> 100 µM	0.983 µM	0.708	> 100 µM	0.525	> 100 µM	279	9.36 µM	0.337	378	21.3	95.9	0.194	29500	0.0951	42.3	23700
CCOC(=O)C1(Br)C(c2ccccc2)NC(=O)NC1(C)Br (configuration not stated)	> 100	> 100	> 100 µM	> 73.7 µM	> 100 µM	> 100	> 100 µM	> 100	49.4 µM	–	> 100 µM	–	–	–	–	22.3	–	–	–	–
CCCn1c(SC)nc(COC(=O)NC)c1COC(=O)NC	> 100	> 100	> 100 µM	> 100 µM	> 100 µM	> 100	> 100 µM	> 100	–	–	–	–	–	–	–	–	–	–	–	–
CCCCCCCNc1nc(C(=O)OCC)ncc1-c1ccc(C(F)(F)F)cc1	> 100	70.9	> 100 µM	96.2 µM	> 100 µM	> 100	> 100 µM	> 100	> 100 µM	41500	> 100 µM	33.2	24700	35.8	42200	26.6	35500	51.2	34.1	34400
COc1ccccc1/C=C/[N+](=O)[O-]	6.98	8.32	3.94 µM	6.45 µM	4.6 µM	6.93	5.02 µM	6.31	5.72 µM	1760	3.24 µM	2.32	2540	1.89	1960	2.41	886	2.81	2.07	2540
C=C1SC(=Nc2c(C)cc(C)cc2C)N(C(=O)c2sc3ccccc3c2Cl)C12CCCCC2	> 100	> 100	> 100 µM	> 100 µM	> 100 µM	> 100	> 100 µM	> 100	> 100 µM	44700	> 100 µM	> 100	> 100000	> 100	37400	22.3	13000	> 100	> 100	26300
O=C(c1ccc2ccccc2c1)c1c(C(F)(F)F)n([O-])c2cc(F)c(F)cc2[n+]1=O	4.37	–	7.11 µM	2.68 µM	9.29 µM	2.9	3.18 µM	3.41	–	2420	7.65 µM	1.76	–	2.53	2620	1.48	450	1.76	–	749
CCc1n(Cc2ccc3ccccc3n2)cc[n+]1Cc1ccc2ccccc2n1	> 100	16.7	21.7 µM	10.1 µM	8.66 µM	10.7	12.5 µM	26.3	13.5 µM	227	14.4 µM	65.7	214	2.93	257	0.163	75.3	5.5	0.186	437
O=C(/C=C/C12c3ccccc3C(c3ccccc31)C1C(=O)N(c3ccccc3)C(=O)C12)c1ccccc1 (configuration not stated)	10.6	6.05	10.1 µM	> 100 µM	18.1 µM	> 100	> 100 µM	> 100	9.44 µM	1750	3.62 µM	1.6	2060	2.51	2690	2.07	2020	6.22	2.48	1230
COc1ccc(-c2oc3c(OC)c(OC)c(OC)c(O)c3c(=O)c2OC)cc1OC	> 100	23.2	> 100 µM	51.9 µM	> 83.8 µM	> 93	45.1 µM	> 100	> 100 µM	–	> 67 µM	–	–	–	–	–	–	–	–	–
O=C1C(c2c[nH]c3ccccc23)=C(c2c[nH]c3ccccc23)C(=O)N1O	> 25	> 25	> 25 µM	> 25 µM	> 25 µM	> 25	> 25 µM	> 25	> 25 µM	> 25000	> 25 µM	> 25	> 25000	> 25	> 25000	> 25	> 25000	> 25	> 25	> 25000
CC1(C)CC[C@H](Nc2ncc(C(F)(F)F)c(-c3c[nH]c4c(P(C)(C)=O)c(C#N)ccc34)n2)CN1	15.1	14.5	6.69 µM	> 23.2 µM	3.44 µM	43.3	–	> 53.9	23.7 µM	37.5	11.6 µM	0.21	23.1	0.0759	< 10	0.0396	< 10	0.711	0.0771	214
FC(F)(F)c1cc(-c2nnc3n2N=C(N2CCCC2)CS3)cc(C(F)(F)F)c1	> 50	> 50	> 50 µM	–	> 50 µM	> 50	> 50 µM	–	> 50 µM	> 50000	> 50 µM	> 50	> 50000	> 50	> 50000	> 50	48800	–	18.1	–
CCCCS(=O)CCC(N)C(=O)O (configuration not stated)	> 100	> 100	> 100 µM	> 100 µM	> 100 µM	> 100	> 100 µM	> 100	> 100 µM	–	> 100 µM	–	–	–	–	–	–	–	–	–
C=C(CCCCCCCCC)CC(=O)SCCNC(=O)CCNC(=O)C(O)C(C)(C)COP(=O)(O)OP(=O)(O)OCC1OC(n2cnc3c(N)ncnc32)C(O)C1OP(=O)(O)O (configuration not stated)	> 100	> 100	65 µM	> 100 µM	> 100 µM	> 100	> 100 µM	> 100	> 100 µM	–	> 100 µM	–	–	–	–	–	–	–	–	–
CCCc1c(CC)c(=N)c2ccccc2n1C	> 100	> 100	–	> 100 µM	> 100 µM	> 100	> 100 µM	> 100	> 100 µM	> 100000	> 100 µM	> 100	> 100000	–	37700	71.5	> 100000	> 100	47.9	> 100000
COc1cc(/C=C2\CCC/C(=C\c3cc(OC)c(O)c(OC)c3)C2=O)cc(OC)c1O	3.45	3.89	75 µM and 69.4 µM	75 µM and 36.5 µM	3.5 µM and 4.19 µM	–	75 µM and 28.8 µM	> 100	2.76 µM and 3.14 µM	–	–	–	–	2.9	–	1.24	1730	–	–	2970
COc1ccc(-c2cc(=O)c3c(C)cc(C)nc3[nH]2)cc1	> 100	84.8	> 100 µM	42.9 µM	> 100 µM	> 100	–	99.2	> 100 µM	–	> 100 µM	–	–	–	–	23.9	–	–	90.7	–
CSC(CC(=O)O)C(=O)O (configuration not stated)	> 100	> 100	> 100 µM	> 100 µM	> 100 µM	> 100	> 100 µM	> 100	> 100 µM	–	> 100 µM	–	–	–	–	–	–	–	–	–
COc1ccc(C2SCC(=O)N2NC(=O)C(O)c2ccccc2)cc1OC (configuration not stated)	> 100	> 100	> 100 µM	> 100 µM	–	> 100	> 100 µM	> 100	> 100 µM	> 100000	> 100 µM	> 100	> 100000	> 100	–	> 100	40900	> 100	> 100	> 100000
Cc1ccc(S(=O)(=O)NCCNC2=CC(=O)c3nc4ccccc4c4ccnc2c34)cc1	48.1	51.9	58.2 µM	–	49.5 µM	49.8	> 100 µM	40.1	63.9 µM	–	–	16.2	19900	15.7	20100	16	4770	20.2	24.7	–
COc1cc(/C=C\c2ccc(C)cc2)cc(OC)c1OC	–	> 100	–	0.51 µM	0.276 µM	> 100	0.0917 µM	> 100	0.348 µM	< 12.9	0.215 µM and < 0.0303 µM	–	–	–	–	0.0173	–	25.7	–	–
O=C(Nc1ccc(F)cc1)c1ccc(NC2=C(Cl)C(=O)N(Cc3ccccc3)C2=O)cc1	49.4	3.58	30.3 µM	21 µM	84.4 µM	22.3	2.54 µM	–	24.1 µM	11000	> 100 µM	13.3	1060	13.4	31500	7.42	848	–	11	3790

From PubChem BioAssay (NCI)
